Experimental data from patent US8697649B2, “Polypeptides, nucleic acid molecule encoding polypeptides, and uses of polypeptides” (China Medical University, priority 2012, dated 2014).
“Also recorded” adds a separate entry of the source. Where two headings read alike, the source gives them in different places. Blank lines part the entries; values can stand above or below the sequence they belong to. Where no end group is shown, it is not given here.

How the values were obtained:
insulin receptor [1] = biological target: T1, insulin receptor (Homo sapiens, UniProt P06213); assay: Whole cell receptor binding assay with 125I-labeled insulin (IM-9 cells)
T1 construct: endogenous in cells; host or cells: IM-9 human lymphocyte cell line
Experimental: After incubation, the cells were chilled, centrifuged at 2000 rpm for 10 min at 4° C., and the pellets were washed twice with an ice-cold wash buffer (10 mmol/L Tris and 150 mmol/L NaCl, pH 7.6). The pellet was counted by a gamma counter. The assays were performed at least three times for each polypeptide. […] The lower value of EC50 represents a stronger effect on promoting the binding.

diabetic mice [2] = assay: Measurement of renal index; type: in vivo; conditions: oral, after 28 days, blood
Experimental: After 28 days, the kidney indexes (BUN and CRE) in the blood of these mice were measured to evaluate the effects of these polypeptides on the renal disorders caused by diabetes.

[3] = test system: diabetic mice (STZ-induced); assay: Glycated hemoglobin value assay; type: in vivo; conditions: 1×10^−6 mole/kg oral, after 28 days
Experimental: Glycated hemoglobin value (HbAlc) is the concentration of glucose attached on red blood cells in the blood of an organism. In general, a higher concentration of blood sugar reflects a higher glycated hemoglobin value, while the glycated hemoglobin value is a standard for evaluating the effect of a medicament on treating diabetes. Therefore, in this example, the effect of the polypeptide on controlling the blood sugar values of the mice were evaluated by measuring the glycated hemoglobin value.
In the experimental group, the polypeptides (1×10^−6 mole/kg body weight, 20 μl) were orally administrated to each mouse in the experimental group. In the control group, each mouse was administrated by 20 μl water. The glycated hemoglobin value was measured after 28 days.

diabetic mice [4] = assay: Measurement of liver index; type: in vivo; conditions: oral, after 28 days
Experimental: The polypeptide of IRBP-50-68 (SEQ ID NO:6) was orally administrated to the diabetic mice in the experimental group by the same method as described in Example 14. After 28 days, the liver indexes (GOT and GPT) of these mice were measured to evaluate the effect of the polypeptide on the hepato disorders caused by diabetes in diabetic mice.

[5] = test system: mice (BALB/c, STZ-induced, ob/ob); assay: Blood sugar reducing assay; type: in vivo; conditions: 2.5×10^−9 mole/kg intraperitoneal, 150 minutes
Experimental: IRBP-1-68 (SEQ ID NO:1), the polypeptides having the segmental amino acid sequences of IRBP, and the polypeptides derived from the substitution of multiple amino acids in the segmental amino acid sequences were analyzed by a blood sugar reducing assay. […] The polypeptides (100 μl, 2.5×10^−9 mole/kg body weight) as shown in Table 11 were administrated to each mouse in an experimental group by intraperitoneal injection. Each mouse in the control group was administrated with 100 μl water. […] After 150 minutes, blood samples were collected from the mouse tails, while the blood sugar value was measured by a glucometer (ACCU-CHEK Advantage, Roche, Germany). The blood sugar values of the mice in the experimental group and control group were compared and analyzed.

[6] = biological target: insulin receptor tyrosine kinase (Homo sapiens, UniProt P06213); assay: Receptor binding assay by insulin receptor tyrosine kinase activity; type: biochemical; conditions: poly(Glu,Tyr) substrate, [γ-32P]ATP
Experimental: The sample was placed in an ice bath for 10 minutes. Then, TCA was added thereinto to precipitate the substrate (poly(Glu,Tyr)) on a filter paper.

3T3-L1 adipocytes [7] = assay: Western blotting analysis of insulin signal pathway-related proteins; type: cell-based; conditions: 3T3-L1 adipocytes treated 16 hours, FIG. 3
Experimental: 3T3-L1 adipocytes were cultured at 37° C. for 24 hours, treated with IRBP-1-68 (SEQ ID NO:1) for 16 hours, collected using a cell scraper after being washed with ice-cold PBS, and lysed with a 300 μl sample buffer (62.5 mM Tris-HCl, pH 6.8, 2% sodium dodecyl sulfate, 10% glycerol, 50 mM dithiothreitol, 0.1% bromophenol blue). The protein concentration of the cell lysate was determined with a Bradford method (Bio-Rad, Hercules, Calif., USA). The proteins (10 μg) were separated by SDS-PAGE and the protein bands were then transferred electrophoretically to nitrocellulose membranes (Amersham Pharmacia Biotech Inc., Piscataway, N.J., USA). Membranes were blocked in blocking buffer (20 mM Tris-HCl, pH 7.6, 140 mM NaCl, 0.1% Tween-20, 5% skim milk powder) and probed with anti-Akt, anti-phospho-Akt (Ser473), anti-phospho-Akt (Thr308), anti-phospho-PTEN (phosphatase and tensin homolog deleted on Chromosome ten) (Ser380), anti-phospho-GSK-3β (glycogensynthasekinase-3β) (Ser9), anti-phospho-Raf (Ser259), anti-phospho-PDK1 (phosphoinositide-dependent kinase 1) (Ser241) antibodies (Cell Signaling Technology, Beverly, Mass., USA). The result was shown in FIG. 3, wherein the values shown in FIG. 3 represent the intensity of the bands in western blotting analysis. A higher value represents a higher expression level of the target protein.

insulin receptor [8] = biological target: T1, insulin receptor; assay: Insulin receptor autophosphorylation assay in IM-9 cells; type: cell-based; conditions: stimulated 15 min at 37° C., immunoblotting, FIG. 2
Experimental: The assay was conducted by the following steps: The human lymphocyte cell line (IM-9) was serum-starved (RPMI medium supplemented with 0.1% BSA) for 16 h and then stimulated with IRBP-1-68 (SEQ ID NO:1) for 15 min at 37° C., and washed with cold PBS. The cells were lysed to obtain about […] of total proteins, while the immunoprecipitation was conducted by the anti-insulin receptor polyclonal antibody (C-19). Then, the protein was adsorbed onto protein G-agarose beads (Gibco-BRL, Gaithersburg, Md.) for 2 h at 4° C., resolved by SDS-PAGE, and transferred to an Immobilon-P membrane by electroblotting. The membrane was incubated with antiphosphotyrosine antibody (4G10) overnight at 4° C. to conduct the immunoblotting analysis. In FIG. 2, the broader band of the immunoblotting analysis represents a higher protein expression level.

3T3-L1 adipocytes [9] = assay: Glucose uptake assay; type: cell-based; conditions: 1 nM insulin plus IRBP-1-68, 30 min, [3H]-2-deoxy-D-glucose 10 min
Excerpt: A key step for modulating blood sugar is that adipose tissue can uptake glucose from the blood and thereby, reduce blood sugar. Accordingly, this example further used 3T3-L1 adipocytes as an assay platform to conduct the glucose uptake assay. […] The cells were washed three times with ice-cold phosphate buffered saline (PBS) and then solubilized in 0.1% SDS.

3T3-L1 adipocytes [10] = assay: Microarray analysis; type: cell-based; conditions: expression increased or decreased up to 2 folds
Experimental: Total RNAs were extracted from 3T3-L1 adipocytes which were or were not treated with IRBP-1-68 (SEQ ID NO:1) using RNeasy Mini kit (Qiagen, Valencia, Calif., USA). Total RNA was evaluated using Agilent 2100 bioanalyzer (Agilent Technologies, Santa Clara, Calif., USA). The RNA sample with an RNA integrity number greater than 8.0 was selected. Microarray analysis was performed as described previously (see Cheng, W. Y. et al., 2009, Comprehensive evaluation of a novel nuclear factor-κB inhibitor, quinoclamine, by transcriptomic analysis. Brit. J. Pharmacol. 157(5): 746-756; Cheng, H. M. et al., 2010, Application of bioactivity database of Chinese herbal medicine on the therapeutic prediction, drug development, and safety evaluation. J. Ethnopharmacol. 132 (2): 429-437; and Hsiang, C. Y. et al., 2009, Nuclear factor-κB bioluminescence imaging-guided transcriptomic analysis for the assessment of hoist-biomaterial interaction in vivo. Biomaterials 30 (17): 3042-3049, which are entirely incorporated hereinto by reference).

3T3-L1 adipocytes [11] = assay: Immunochemical analysis of GLUT4; type: cell-based; conditions: FIG. 4
Experimental: Immunochemical analysis was conducted by the following method: 3T3-L1 adipocytes were cultured and fixed on a cover slide, and incubated with a 1:50 diluted mouse monoclonal antibody against GLUT4 (Millipore, Billerica, Mass., USA) at 4° C. overnight. Then, the cells were incubated with biotinylated secondary antibody (Zymed Laboratories, South San Francisco, Calif., USA) at room temperature for 20 min. Then, the slides were incubated with avidin-biotin complex reagent and stained with 3,3′-diaminobenzidine (HISTOSTAIN®-Plus Kit, Zymed Laboratories, South San Francisco, Calif., USA).

[12] = STZ-induced mice, glucose 1 g/kg

Sequence: GAAAKAVIERENPRVRVI [IRBP-17-35]
EC50 (insulin receptor [1]): > 25000 pM

Sequence: IVARPPAIG [IRBP-MC]
EC50 (insulin receptor [1]; IM-9 cells, 16° C., 90 min): 860 ± 50 pM

Sequence: IVARPPTIG [IRBP-60-68]
BUN (diabetic mice [2]): 73.17 ± 29.95
CRE (diabetic mice [2]): 0.17 ± 0.04
glycated hemoglobin value [3]: 5.73 ± 0.11 %
EC50 (insulin receptor [1]): 770 ± 40 pM

Sequence: RVRVWVTERGIVARPPTIG [IRBP-50-68]
GOT (diabetic mice [4]): 247.89 ± 97.38
GPT (diabetic mice [4]): 135.72 ± 30.72
BUN (diabetic mice [2]): 107.25 ± 42.99
CRE (diabetic mice [2]): 0.191 ± 0.12
glycated hemoglobin value [3]: 5.93 ± 0.55 %

Sequence: RYKYQCWYI (optimal docking polypeptide of insulin receptor) [IRBP-9D]
activity of insulin receptor tyrosine kinase [6]: 65.95 ± 1.74 U/ml

Sequence: RYKYQWWYI (optimal docking polypeptide of insulin receptor) [IRBP-9C]
blood sugar inhibition ratio [5, 12]: 22.6 ± 9.0%
activity of insulin receptor tyrosine kinase [6]: 44.18 ± 3.61 U/ml

Sequence: SRCQGKSSWPQLVGSTGAAAKAVIERENPRVRAVIIKVGSGATKDFRCDRVRVWVTERGIVARPPTIG [IRBP-1-68]
protein expression levels of insulin signal pathway-related genes (PDK-1, phosphorylated-AKt Thr 308, phosphorylated-AKt Ser 473, GLUT4) (3T3-L1 adipocytes [7]): can increase the protein expression levels
insulin receptor autophosphorylation (ratio of phosphorylated insulin receptor to insulin receptor) (insulin receptor [8]): increased along with the increment of IRBP-1-68 (SEQ ID NO:1) concentration; also recorded: can induce insulin receptor autophosphorylation
blood sugar inhibition ratio ([5]; BALB/c mice, glucose 4 g/kg): 68.9 ± 0.9 %
blood sugar inhibition ratio [5, 12]: 37.3 ± 3.8%
blood sugar inhibition ratio ([5]; ob/ob mice, glucose 1 g/kg): 55.6 ± 12.9 %
Ratio (radioactivity, glucose uptake) (3T3-L1 adipocytes [9]): 1.79 ± 0.49
number of the genes with changed expression level (total gene number of the pathway) (3T3-L1 adipocytes [10]; adipocytokine signal pathway): 16 (71)
number of the genes with changed expression level (total gene number of the pathway) (3T3-L1 adipocytes [10]; insulin signal pathway): 28 (136)
GLUT4 expression by immunochemical staining (3T3-L1 adipocytes [11]): can promote 3T3-L1 adipocytes to express GLUT4

The next lines start with results.

EC50 (insulin receptor [1]; IM-9 cells, 16° C., 90 min): > 25000 pM
Sequence: DFRCDRVRVWVTERGIVARPPTIG [IRBP-45-68]

EC50 (insulin receptor [1]; IM-9 cells, 16° C., 90 min): 770 ± 20 pM
Sequence: IVYQVPTIG [IRBP-MT]

activity of insulin receptor tyrosine kinase [6]: 79.76±5.64 U/ml
Sequence: RYKYQCFYI (optimal docking polypeptide of insulin receptor) [IRBP-9B]
blood sugar inhibition ratio ([5]; BALB/c mice, glucose 4 g/kg): 61.0 ± 2.5 %

activity of insulin receptor tyrosine kinase [6]: 40.34 ± 1.94 U/ml
Sequence: RYKYQWFYI (optimal docking polypeptide of insulin receptor) [IRBP-9A]
blood sugar inhibition ratio [5, 12]: 34.2 ± 13.6%

EC50 (insulin receptor [1]; IM-9 cells, 16° C., 90 min): > 25000 pM
Sequence: VIIKVGSGATKDFRCDRVR [IRBP-34-52]
